# Test results published in patent US20170239289A1, “TREATMENT OF INFLAMMATION, RESPIRATORY TRACT INFECTIONS AND CYSTIC FIBROSIS” (Advanced Inhalation Therapies (AIT) Ltd., priority 2014, published 2017).
# Values joined by “and” are separate entries in the source; they are usually repeats but may differ in a detail not shown here. Equal values may be shown once.
# Assays:
# C-reactive protein (CRP) = assay: Example 1: CRP levels in CF subjects treated with 160 ppm NO; format: in vivo, human; details: three subjects with baseline CRP greater than 5 mg/L
# Protocol: NO was administered via inhalation to nine clinically stable human subjects diagnosed with, or suffering from CF from two medical centers. Patients received three daily 30-minute treatments of 160 ppm NO with at least 3.5 hours between treatments, for 5 days per week over a two-weeks time period.
# Preliminary efficacy measures included determination of microbial density in sputum and measurements of forced exhaled volume at 1 second (FEV1). Inflammation associated with C-reactive protein (CRP) levels was assessed as a secondary outcome measure. Other inflammation biomarkers, such as interleukins, were also monitored (data not shown).
# [1] = test system: human subjects diagnosed with acute bronchiolitis; assay: Example 3: randomized bronchiolitis study, infants 2-12 months; 160 ppm NO 30 min 5x daily up to 5 days plus O2 vs O2 alone; efficacy; format: in vivo
# Source text: Eligible subjects were randomized (1:1) to receive intermittent NO and standard treatment with O2 (hereafter referred to as NO treatment) or standard treatment with O2 (hereafter referred to as standard treatment) alone for a treatment period of up to 5 days. During treatment, MetHb and O2 saturation levels were continuously monitored using a dedicated monitor.
# In addition to standard supportive O2 treatment which was initiated prior to randomization, subjects in the NO group were given five 30 minute inhalations per day of 160 ppm NO, at intervals of 3 to 4 hours, until subject improvement led to a physician decision of fit to discharge, to a maximum of 25 inhalations over 5 consecutive days. Inhalations were administered via hospital face masks (Hospiltak, Unomedical Inc).
# All subjects in the control group were managed with standard supportive O2 treatment in the same way as the active treatment group, but without actual NO administration.
# Secondary Endpoints—Efficacy: • LOS in hours, measured as time from first inhalation treatment to “fit to discharge” • Time to reach 92% O2 saturation (in room air) measured as time from first inhalation treatment to first O2 saturation of 92% sustained to discharge • Time to clinical score of less than or equal to 5 measured as time from first inhalation treatment to clinical score of less than or equal to 5
# The following analysis sets were defined for analysis of safety and efficacy: • Intent-to-treat (ITT): Defined as all randomized subjects who received at least one study treatment. This was the main set for analysis of efficacy and safety. • Per-Protocol (PP): Defined as all subjects in the ITT cohort who completed study treatment in compliance with the protocol (i.e., excludes all early termination subjects) and who had no major protocol violations. This was a secondary set for analysis of efficacy.
# An additional set for analysis of efficacy was defined post-hoc: • Modified Intent-to-treat (mITT): Defined as all subjects in the ITT, excluding subjects who were prematurely discontinued from treatment and/or or discontinued from the study according to protocol guidelines.
# Length of hospitalization stay (LOS) was calculated in hours from the first inhalation treatment to “fit to discharge” defined as physician decision to discharge.
# Time to achieve O2 saturation of 92% (improvement) leading to discharge was calculated from first treatment to the first time of O2 saturation of at least 92% before discharge. Time was taken from the clinical score assessments where applicable and from subject daily chart in special circumstances.
# Time to clinical score of less than or equal to 5 was calculated from first inhalation to the first time the subject reached a clinical score of less than or equal to 5.
# Survival Analysis using a Kaplan-Meier survival function curve was applied for testing the statistical significance of the difference between the study groups in the following endpoints: • LOS, from first inhalation to fit to discharge • Time to achieve 92% Saturation leading to discharge • Time to achieve clinical score less than or equal to 5
# The Cox model was applied for comparative analysis of Kaplan-Meier curves. The hazards ratio was estimated via the Cox's regression model.
# Post-hoc subgroup analyses of subjects with a LOS less than or equal to 24 hours and greater than 24 hours were also conducted for the key post-hoc secondary endpoints. Additional exploratory analyses were also conducted on a subgroups with LOS greater than 36 hours and a subgroup of the 10 most severe subjects (i.e., longest LOS) from each treatment group. These post-hoc analyses were conducted for the following reasons: • Based on preclinical studies, the anti-viral/anti-microbial treatment effect of NO is expected to take at least 24 hours (i.e., 2.5 treatment hours). • Approximately ⅓ of subjects were discharged after less than 24 hours in hospital. […]
# [2] = mITT, 10 most severe subjects from each group
# [3] = mITT, LOS greater than 24 hours
# [4] = mITT, LOS greater than 36 hours
structure (smiles),measurement,setting,value
"[N]=O [NO, nitric oxide]",reduction in CRP levels after treatment,C-reactive protein (CRP),40-60%
same,"Hazard ratio, time to sustained 92% O2 saturation","[1]; ITT (N=42), NO vs standard treatment, 95% CI: 0.392, 1.361",0.731
same,"Hazard ratio, time to clinical score less than or equal to 5","[1]; ITT (N=43), NO vs standard treatment, 95% CI: 0.378, 1.404",0.728
same,"Hazard ratio, LOS (Kaplan-Meier/Cox)","[1]; ITT (N=43), NO vs standard treatment, 95% CI: 0.435, 1.518",0.812
same,"Time to first 92% O2 saturation sustained to discharge, Mean (SD)","[1]; ITT, All (N = 42)",35.50 (33.73) hours and 35.50 hours
same,"Time to first 92% O2 saturation sustained to discharge, Median","[1]; ITT, All (N = 42)",21.08 h
same,"LOS, hours Mean (SD)","[1]; ITT, All (N = 43)",43.34 (32.95) hours and 43.34 hours
same,"LOS, hours Median","[1]; ITT, All (N = 43)",40.03 h
same,"Time to Clinical Score ≦5, Mean (SD)","[1]; ITT, All (N = 43)",32.83 (30.61) hours and 32.83 hours
same,"Time to Clinical Score ≦5, Median","[1]; ITT, All (N = 43)",21.08 h
same,"LOS, hours Mean (SD)","[1]; ITT, LOS >24 hours (N = 27)",53.27 h
same,"LOS, hours Median","[1]; ITT, LOS >24 hours (N = 27)",41.92 h
same,"Time to Clinical Score ≦5, Mean (SD)","[1]; ITT, LOS >24 hours (N = 27)",39.62 h
same,"Time to Clinical Score ≦5, Median","[1]; ITT, LOS >24 hours (N = 27)",39.92 h
same,"Time to first 92% O2 saturation sustained to discharge, Mean (SD)","[1]; ITT, LOS >24 hours (N = 27)",43.35 h
same,"Time to first 92% O2 saturation sustained to discharge, Median","[1]; ITT, LOS >24 hours (N = 27)",41.17 h
same,"Hazard ratio, time to clinical score less than or equal to 5","[1]; ITT, LOS greater than 24 hours, 95% CI: 0.161, 0.949",0.391
same,"Hazard ratio, LOS (Kaplan-Meier/Cox)","[1]; ITT, LOS greater than 24 hours, 95% CI: 0.211, 1.091",0.480
same,"Hazard ratio, time to sustained 92% O2 saturation","[1]; ITT, LOS greater than 24 hours, 95% CI: 0.232, 1.145",0.515
same,"Time to first 92% O2 saturation sustained to discharge, Mean (SD)","[1]; ITT, LOS ≦24 hours (N = 15)",15.86 h
same,"Time to first 92% O2 saturation sustained to discharge, Median","[1]; ITT, LOS ≦24 hours (N = 15)",16.78 h
same,"LOS, hours Mean (SD)","[1]; ITT, LOS ≦24 hours (N = 16)",18.52 h
same,"LOS, hours Median","[1]; ITT, LOS ≦24 hours (N = 16)",18.50 h
same,"Time to Clinical Score ≦5, Mean (SD)","[1]; ITT, LOS ≦24 hours (N = 16)",15.86 h
same,"Time to Clinical Score ≦5, Median","[1]; ITT, LOS ≦24 hours (N = 16)",16.78 h
same,"Hazard ratio, time to sustained 92% O2 saturation","[1]; PP (N=38), 95% CI: 0.334, 1.302",0.660
same,"Hazard ratio, time to clinical score less than or equal to 5","[1]; PP (N=39), 95% CI: 0.332, 1.324",0.663
same,"Hazard ratio, LOS (Kaplan-Meier/Cox)","[1]; PP (N=39), 95% CI: 0.444, 1.688",0.866
same,"Time to first 92% O2 saturation sustained to discharge, Mean (SD)","[1]; PP, All (N = 38)",30.17 (21.06) hours and 30.17 hours
same,"Time to first 92% O2 saturation sustained to discharge, Median","[1]; PP, All (N = 38)",21.08 h
same,"LOS, hours Mean (SD)","[1]; PP, All (N = 39)",38.79 (21.52) hours and 38.79 hours
same,"LOS, hours Median","[1]; PP, All (N = 39)",40.03 h
same,"Time to Clinical Score ≦5, Mean (SD)","[1]; PP, All (N = 39)",27.18 (13.17) hours and 27.18 hours
same,"Time to Clinical Score ≦5, Median","[1]; PP, All (N = 39)",21.08 h
same,"LOS, hours Mean (SD)","[1]; PP, LOS >24 hours (N = 24)",46.03 h
same,"LOS, hours Median","[1]; PP, LOS >24 hours (N = 24)",41.83 h
same,"Time to Clinical Score ≦5, Mean (SD)","[1]; PP, LOS >24 hours (N = 24)",31.41 h
same,"Time to Clinical Score ≦5, Median","[1]; PP, LOS >24 hours (N = 24)",34.92 h
same,"Time to first 92% O2 saturation sustained to discharge, Mean (SD)","[1]; PP, LOS >24 hours (N = 24)",35.47 h
same,"Time to first 92% O2 saturation sustained to discharge, Median","[1]; PP, LOS >24 hours (N = 24)",38.98 h
same,"Hazard ratio, time to clinical score less than or equal to 5","[1]; PP, LOS greater than 24 hours, 95% CI: 0.093, 0.799",0.273
same,"Hazard ratio, time to sustained 92% O2 saturation","[1]; PP, LOS greater than 24 hours, 95% CI: 0.139, 0.921",0.358
same,"Hazard ratio, LOS (Kaplan-Meier/Cox)","[1]; PP, LOS greater than 24 hours, 95% CI: 0.164, 1.062",0.418
same,"Time to first 92% O2 saturation sustained to discharge, Mean (SD)","[1]; PP, LOS ≦24 hours (N = 14)",15.32 h
same,"Time to first 92% O2 saturation sustained to discharge, Median","[1]; PP, LOS ≦24 hours (N = 14)",16.75 h
same,"LOS, hours Mean (SD)","[1]; PP, LOS ≦24 hours (N = 15)",18.50 h
same,"LOS, hours Median","[1]; PP, LOS ≦24 hours (N = 15)",18.42 h
same,"Time to Clinical Score ≦5, Mean (SD)","[1]; PP, LOS ≦24 hours (N = 15)",15.32 h
same,"Time to Clinical Score ≦5, Median","[1]; PP, LOS ≦24 hours (N = 15)",16.75 h
same,median time to clinical score less than or equal to 5,"[1]; mITT, 10 most severe subjects (based on LOS) from each group",41.56 h
same,median LOS,[1]; [2],42.14 h
same,median time to 92% O2 saturation sustained to discharge,[1]; [2],41.59 h
same,median time to clinical score less than or equal to 5,[1]; [3],34.92 h
same,median time to first 92% O2 saturation sustained to discharge,[1]; [3],38.98 h
same,median LOS,"[1]; mITT, LOS greater than 24 hours (N=25)",41.83 h
same,"Hazard ratio, time to clinical score less than or equal to 5","[1]; mITT, LOS greater than 24 hours, 95% CI: 0.081, 0.699",0.238
same,"Hazard ratio, time to sustained 92% O2 saturation","[1]; mITT, LOS greater than 24 hours, 95% CI: 0.119, 0.797",0.308
same,"Hazard ratio, LOS (Kaplan-Meier/Cox)","[1]; mITT, LOS greater than 24 hours, 95% CI: 0.140, 0.913",0.357
same,median LOS,[1]; [4],41.92 h
same,median time to 92% O2 saturation sustained to discharge,[1]; [4],41.37 h
same,median time to clinical score less than or equal to 5,[1]; [4],41.37 h
